Results on two compounds are retold here after PMC11558128 (Advanced Science, 2024).

Numbering of substitutions follows the chain as printed. Positions of bridges follow the written chain, without caps; N, C: chain ends. Residues, ends and D or L forms follow the SMILES beside them.

What all share (assay): cell-based
One test has as its target T1, rKv4.2 (Rattus norvegicus, UniProt Q63881).
T1 construct: expressed in transfected cells; host or cells: HEK293T
T1 sequence (Q63881 1-630): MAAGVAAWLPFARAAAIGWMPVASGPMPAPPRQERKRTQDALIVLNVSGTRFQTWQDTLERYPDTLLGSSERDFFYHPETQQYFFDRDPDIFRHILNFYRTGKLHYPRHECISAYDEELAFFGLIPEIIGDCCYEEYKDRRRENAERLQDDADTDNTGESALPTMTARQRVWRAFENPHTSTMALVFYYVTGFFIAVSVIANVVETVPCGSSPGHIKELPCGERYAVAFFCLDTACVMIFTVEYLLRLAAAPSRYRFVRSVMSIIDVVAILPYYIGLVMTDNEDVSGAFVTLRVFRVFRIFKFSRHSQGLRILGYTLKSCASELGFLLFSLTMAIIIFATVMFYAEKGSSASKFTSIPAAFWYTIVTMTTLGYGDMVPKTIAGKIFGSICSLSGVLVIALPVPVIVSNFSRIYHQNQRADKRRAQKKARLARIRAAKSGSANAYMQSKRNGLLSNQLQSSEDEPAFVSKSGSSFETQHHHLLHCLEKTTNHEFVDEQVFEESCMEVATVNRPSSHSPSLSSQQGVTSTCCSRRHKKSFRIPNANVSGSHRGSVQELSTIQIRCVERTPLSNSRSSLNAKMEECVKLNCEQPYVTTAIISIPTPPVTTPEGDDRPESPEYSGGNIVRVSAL
The note with it: whole-cell patch clamp, HEK293T; mean ± SEM, n = 3-8; SEM; read-out: IC50 on rKv4.2 WT. (In general: In patch-clamp work, channel activity is measured electrically.)

For another test, the target named is T2, rKv4.3 (Rattus norvegicus, UniProt Q62897).
T2 construct: expressed in transfected cells; host or cells: HEK293T
T2 sequence (Q62897 1-655): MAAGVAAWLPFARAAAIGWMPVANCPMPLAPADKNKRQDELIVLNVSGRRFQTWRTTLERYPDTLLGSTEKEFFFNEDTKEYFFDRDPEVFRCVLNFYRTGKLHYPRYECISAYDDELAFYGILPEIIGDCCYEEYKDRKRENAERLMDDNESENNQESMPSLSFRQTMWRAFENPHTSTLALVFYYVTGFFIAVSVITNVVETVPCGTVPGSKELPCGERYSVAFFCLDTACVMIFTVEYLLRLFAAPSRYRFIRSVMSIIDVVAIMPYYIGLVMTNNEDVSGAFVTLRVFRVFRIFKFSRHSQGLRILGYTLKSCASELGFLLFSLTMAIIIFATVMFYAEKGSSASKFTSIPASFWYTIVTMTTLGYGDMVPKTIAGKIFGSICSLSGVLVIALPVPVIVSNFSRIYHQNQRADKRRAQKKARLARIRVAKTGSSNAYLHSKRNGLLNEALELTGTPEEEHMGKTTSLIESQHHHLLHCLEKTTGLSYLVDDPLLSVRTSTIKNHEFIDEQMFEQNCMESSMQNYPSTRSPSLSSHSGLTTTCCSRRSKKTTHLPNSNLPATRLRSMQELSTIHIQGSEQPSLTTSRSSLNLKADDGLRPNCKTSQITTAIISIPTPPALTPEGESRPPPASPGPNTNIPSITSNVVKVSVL
The note with it: whole-cell patch clamp, HEK293T; held at -80 mV, step to 0 mV; mean ± S.E.M., n = 3-8; SEM.

A further test addresses T3, rKv4.2 M279A (Rattus norvegicus, UniProt Q63881, M279A).
T3 construct: expressed in transfected cells; host or cells: HEK293T
T3 sequence (Q63881 1-630 M279A): T1 sequence (Q63881 1-630) with M279A
The note with it: mean ± SEM.

The target of another test is T4, rKv4.2 D281K (Rattus norvegicus, UniProt Q63881, D281K).
T4 construct: expressed in transfected cells; host or cells: HEK293T
T4 sequence (Q63881 1-630 D281K): T1 sequence (Q63881 1-630) with D281K
To be noted: mean ± SEM.

A word on the IC50: it is the point on the concentration scale where inhibition reaches its midpoint. With `CSCC[C@@H]1NC(=O)CNC(=O)[C@H](CCC(=O)O)NC(=O)[C@@H]2CSSC[C@H](NC(=O)[C@@H](N)Cc3ccc(O)cc3)C(=O)N[C@@H](CCC(N)=O)C(=O)N[C@@H](CCCCN)C(=O)N[C@@H](Cc3c[nH]c4ccccc34)C(=O)N[C@@H](CCSC)C(=O)N[C@@H](Cc3c[nH]c4ccccc34)C(=O)N[C@@H]([C@@H](C)O)C(=O)N[C@H]3CSSC[C@H](NC(=O)[C@H](C(C)C)NC1=O)C(=O)N[C@@H](CCCNC(=N)N)C(=O)N[C@@H](CC(C)C)C(=O)N[C@@H](Cc1c[nH]c4ccccc14)C(=O)N[C@H](C(=O)N[C@@H](CCCCN)C(=O)N[C@@H](CCCCN)C(=O)N[C@@H](CCCCN)C(=O)N[C@@H](CC(C)C)C(=O)N[C@@H](Cc1c[nH]c4ccccc14)C(=O)O)CSSC[C@H](NC(=O)[C@H](CCCCN)NC(=O)[C@H](CCCNC(=N)N)NC(=O)[C@H](CCC(=O)O)NC(=O)[C@H](CO)NC(=O)[C@H](CC(=O)O)NC3=O)C(=O)N2` [ProTx-II], the IC50 on rKv4.2 is 5 ± 2 nM; at rKv4.3, 5.1 ± 0.4 nM; against rKv4.2 M279A, 17 ± 5 nM; on rKv4.2 D281K, 27 ± 2 nM.
As for `CC[C@H](C)[C@@H]1NC(=O)[C@@H]2CSSC[C@@H]3NC(=O)[C@H](C(C)C)NC(=O)[C@H](CC(C)C)NC(=O)[C@H](CC(N)=O)NC(=O)[C@@H]4CCCN4C(=O)[C@H](CCCNC(=N)N)NC(=O)[C@H](CSSC[C@H](NC(=O)[C@@H](N)CC(=O)O)C(=O)N[C@@H](CC(C)C)C(=O)NCC(=O)N[C@@H](C)C(=O)N[C@@H](Cc4ccccc4)C(=O)N[C@@H](CCCNC(=N)N)C(=O)N[C@@H](CCCCN)C(=O)N2)NC(=O)[C@H](CSSC[C@@H](C(=O)N[C@@H](CCCCN)C(=O)N[C@@H](Cc2ccc(O)cc2)C(=O)N[C@H](C(=O)N[C@@H](Cc2ccccc2)C(N)=O)C(C)C)NC(=O)[C@H](Cc2c[nH]c4ccccc24)NC(=O)[C@H](CCCNC(=N)N)NC(=O)[C@H](Cc2cnc[nH]2)NC(=O)[C@H](CC(C)C)NC(=O)[C@H](CCCNC(=N)N)NC(=O)[C@H](CO)NC3=O)NC(=O)[C@H](CCCCN)NC(=O)[C@H](CC(=O)O)NC(=O)[C@H](CC(N)=O)NC(=O)[C@H](CC(=O)O)NC(=O)[C@@H]2CCCN2C1=O` [mGpTx1] (H-DCLGAFRKCIPDNDKCCRPNLVCSRLHRWCKYVF-NH2; disulfide 2-17, 9-23, 16-30), the IC50 was 81 ± 16 nM on rKv4.2, 56 ± 4.8 nM at rKv4.3, 16500 ± 9010 nM at rKv4.2 M279A and 320 ± 45 nM against rKv4.2 D281K.
